Assay results as given in PMC4352194, “Physicochemical and Biological Properties of Oxovanadium(IV), Cobalt(II) and Nickel(II) Complexes with Oxydiacetate Anions” (Biological Trace Element Research, 2014).

Assays:
[1] = Conductometric titration: limiting molar conductance and association constants; format: physicochemical; conditions: 298.15 K
Description: Conductometric measurements were accomplished on the Cerko Lab System microtitration unit fitted with a 5-mL Hamilton’s syringe, a CD-201 conductometric cell with the constant k = 0.096 cm^−1 (HYDROMET) and a self-made measuring cell equipped with a magnetic stirrer. The conductometric electrode was standardized with conductivity standards (aqueous KCl solutions) of conductivity 84 and 200 μS/cm, purchased from Hamilton Company. The measurements were carried out at 298.15 ± 0.10 K controlled by the Lauda E100 circulation thermostat. The titrant (5 mM [Co(ODA)(H2O)] or [Ni(ODA)(H2O)3]) was added to the titrand (0–50 % v/v DMSO-H2O) both at the same mole fraction of organic solvent, in increments of 0.01 mL, with a pause of 60 s. Each titration was repeated at least three times in order to check the reproducibility of the data. The limiting molar conductance values (Λo) and the association constants (logK ass) for the nickel(II) and cobalt(II) complexes were computed using the Shedlovsky’s and Pitt’s method. The physicochemical parameters of the binary solvents used in the calculations were taken from the literature. They are collected in Table 1.
The limiting molar conductance values (Λo) and the association constants (logK ass) for the nickel(II) and cobalt(II) complexes were computed using Shedlovsky’s and Pitt’s equations and are consequently collected in Table 4.

Staphylococcus aureus = assay: Disc diffusion test; format: cell-based; conditions: S. aureus
Description: (§1) The antimicrobial activity of complex compounds was assessed against Bacillus subtilis, Escherichia coli, Enterococcus faecalis, Pseudomonas aeruginosa, Staphylococcus aureus, Staphylococcus epidermidis (all strains were from the collection of the Department of Molecular Biology, University of Gdańsk). All bacteria were cultured in the Luria-Bertani (LB) broth at 310.15 K in the air with shaking. LB agar plates were prepared by the supplementation of LB broth with the 1.5 % bacteriological agar. Stock solutions of complex compounds were freshly prepared in the LB broth at the concentration of 25 mg/mL. Aliquots of 0.05 mL of bacterial culture at the optical density at 600 nm of 0.1 (inoculum 5 × 10^6 cells per plate) were spread on LB agar plates. Sterile filter paper discs (of 6 mm diameter) were impregnated with solutions of complex compounds prepared in the deionized water at the following amounts: 0.1, 0.2, 0.5 and 1.0 mg per disc and placed on agar plates. After an overnight incubation at 310.15 K, zones of bacterial growth inhibition were measured. Neomycin at the amount of 0.1 mg/disc was used as a control.

Enterococcus faecalis = assay: Disc diffusion test; format: cell-based; conditions: E. faecalis
Description: as §1

[2] = system: Staphylococcus epidermidis; assay: Disc diffusion test; format: cell-based; conditions: S. epidermidis
Description: as §1

Escherichia coli = assay: Disc diffusion test; format: cell-based; conditions: E. coli
Description: as §1

Pseudomonas aeruginosa = assay: Disc diffusion test; format: cell-based; conditions: P. aeruginosa
Description: as §1

[3] = Pitts method, DMSO-water 0 % v/v
[4] = Pitts method, DMSO-water 10 % v/v
[5] = Pitts method, DMSO-water 20 % v/v
[6] = Pitts method, DMSO-water 30 % v/v
[7] = Pitts method, DMSO-water 40 % v/v
[8] = Pitts method, DMSO-water 50 % v/v
[9] = Shedlovsky method, DMSO-water 0 % v/v
[10] = Shedlovsky method, DMSO-water 10 % v/v
[11] = Shedlovsky method, DMSO-water 20 % v/v
[12] = Shedlovsky method, DMSO-water 30 % v/v
[13] = Shedlovsky method, DMSO-water 40 % v/v
[14] = Shedlovsky method, DMSO-water 50 % v/v

SMILES | association constant logK ass [1, 3] | limiting molar conductance Λo [1, 3] | association constant logK ass [1, 4] | limiting molar conductance Λo [1, 4] | association constant logK ass [1, 5] | limiting molar conductance Λo [1, 5] | association constant logK ass [1, 6] | limiting molar conductance Λo [1, 6] | association constant logK ass [1, 7] | limiting molar conductance Λo [1, 7] | association constant logK ass [1, 8] | limiting molar conductance Λo [1, 8] | association constant logK ass [1, 9] | limiting molar conductance Λo [1, 9] | association constant logK ass [1, 10] | limiting molar conductance Λo [1, 10] | association constant logK ass [1, 11] | limiting molar conductance Λo [1, 11] | association constant logK ass [1, 12] | limiting molar conductance Λo [1, 12] | further results
O.O.O.O.O.O.O.O.O.O=C([O-])COCC(=O)[O-].O=C([O-])COCC(=O)[O-].[Ni+2].[Ni+2] [Ni(ODA), [Ni(ODA)(H2O)3]·1.5H2O] | 3.34 (±0.01) | 216.74(±1.08) S cm^2 mol^−1 | 3.48 (±0.01) | 161.75(±0.93) S cm^2 mol^−1 | 3.56 (±0.01) | 114.72(±1.55) S cm^2 mol^−1 | 3.75 (±0.01) | 91.35(±1.33) S cm^2 mol^−1 | 4.05 (±0.01) | 52.00(±0.50) S cm^2 mol^−1 | 4.17 (±0.04) | 29.49(±0.92) S cm^2 mol^−1 | 3.33 (±0.01) | 216.10(±0.74) S cm^2 mol^−1 | 3.47 (±0.01) | 161.00(±0.95) S cm^2 mol^−1 | 3.59 (±0.01) | 119.83(±0.83) S cm^2 mol^−1 | 3.74 (±0.01) | 90.63(±1.37) S cm^2 mol^−1 | association constant logK ass [1, 13]: 4.05 (±0.02); limiting molar conductance Λo [1, 13]: 51.85(±0.61) S cm^2 mol^−1; association constant logK ass [1, 14]: 4.15 (±0.03); limiting molar conductance Λo [1, 14]: 28.80(±0.48) S cm^2 mol^−1; Zone of growth inhibition (Staphylococcus aureus; 500 μg/disc): 7 mm; Zone of growth inhibition (Staphylococcus aureus; 1000 μg/disc): 8 mm
O.O.O=C([O-])COCC(=O)[O-].[O]=[V+2] [VO(ODA), [VO(ODA)(H2O)2]] | – | – | – | – | – | – | – | – | – | – | – | – | – | – | – | – | – | – | – | – | Zone of growth inhibition (Enterococcus faecalis; 500 μg/disc): 9 mm; Zone of growth inhibition (Enterococcus faecalis; 1000 μg/disc): 13 mm; Zone of growth inhibition ([2]; 1000 μg/disc): 12 mm
O.O.O.O=C(O)COCC(=O)O.[Co] [Co(ODA), [Co(ODA)(H2O)2]·H2O] | 3.38 (±0.01) | 226.58(±1.32) S cm^2 mol^−1 | 3.51 (±0.01) | 173.97(±0.60) S cm^2 mol^−1 | 3.77 (±0.01) | 134.29(±1.09) S cm^2 mol^−1 | 3.89 (±0.01) | 92.53(±0.96) S cm^2 mol^−1 | 4.05 (±0.01) | 57.02(±0.71) S cm^2 mol^−1 | 4.32 (±0.03) | 29.74(±1.46) S cm^2 mol^−1 | 3.35 (±0.01) | 223.49(±1.45) S cm^2 mol^−1 | 3.49 (±0.01) | 171.55(±0.74) S cm^2 mol^−1 | 3.77 (±0.01) | 133.47(±1.00) S cm^2 mol^−1 | 3.89 (±0.01) | 92.16(±1.07) S cm^2 mol^−1 | association constant logK ass [1, 13]: 4.09 (±0.03); limiting molar conductance Λo [1, 13]: 55.24(±0.84) S cm^2 mol^−1; association constant logK ass [1, 14]: 4.22 (±0.02); limiting molar conductance Λo [1, 14]: 28.52(±1.58) S cm^2 mol^−1; Zone of growth inhibition (Enterococcus faecalis; 500 μg/disc): 10 mm; Zone of growth inhibition (Enterococcus faecalis; 1000 μg/disc): 15 mm; Zone of growth inhibition (Escherichia coli; 500 μg/disc): 12 mm; Zone of growth inhibition (Escherichia coli; 1000 μg/disc): 14 mm; Zone of growth inhibition (Pseudomonas aeruginosa; 500 μg/disc): 14 mm; Zone of growth inhibition (Pseudomonas aeruginosa; 1000 μg/disc): 18 mm; Zone of growth inhibition (Staphylococcus aureus; 100 μg/disc): 7 mm; Zone of growth inhibition (Staphylococcus aureus; 500 μg/disc): 12 mm; Zone of growth inhibition (Staphylococcus aureus; 1000 μg/disc): 17 mm; Zone of growth inhibition ([2]; 100 μg/disc): 8 mm; Zone of growth inhibition ([2]; 500 μg/disc): 19 mm; Zone of growth inhibition ([2]; 1000 μg/disc): 23 mm
